From PMC6136660 (Steroids, 2018)

Assays:
[1] = tested on: adrenal suppression; set-up: method as in PMID 23498916, PMID 24014378, PMID 27133900; conditions: in vitro assays in multiple cell types; cited from earlier work
[2] = tested on: CTX1 (C-terminal telopeptide of collagen 1); assay: Serum CTX1 (bone resorption biomarker), MAD; assay type: in vivo, human; conditions: mean±SEM
Description: (§1) All biomarkers were analyzed using standard immunoassays by PRA.
(§2) Pharmacological glucocorticoids cause bone side effects including osteopenia and bone fragility. Bone turnover markers bridged to later bone morbidities include osteocalcin for bone formation, and CTX1 (C-terminal telopeptide of collagen 1) for bone absorption. These biomarkers predict phenotypes of osteopenia and used in clinical trials to monitor bone side effects of treatments. […] (Supplemental Fig. 2). In the vamorolone Phase 1 trial, serum osteocalcin levels were assayed prior to dosing (Day 1 predose), 8 h after initial dose (Day 1), pre-dose on day 14 of daily dosing, 8 h after the day 14 (last) dose, and during recovery days 15 and 17.

[3] = tested on: growth and bone; set-up: method as in PMID 24014378; conditions: 30 mg/kg/day, pre-clinical models; cited from earlier work
[4] = tested on: osteocalcin; assay: Serum osteocalcin (bone formation biomarker), MAD; assay type: in vivo, human; conditions: mean±SEM
Description: as §1, §2

[5] = MAD 1.0 mg/kg, Day 1 (8 h after initial dose)
[6] = MAD 1.0 mg/kg, Day 1 (predose), baseline
[7] = MAD 1.0 mg/kg, Day 14 (8 h after last dose)
[8] = MAD 1.0 mg/kg, Day 14 (predose)
[9] = MAD 3.0 mg/kg, Day 1 (8 h after initial dose)
[10] = MAD 3.0 mg/kg, Day 1 (predose), baseline
[11] = MAD 3.0 mg/kg, Day 14 (8 h after last dose)
[12] = MAD 3.0 mg/kg, Day 14 (predose)
[13] = MAD 9.0 mg/kg, Day 1 (8 h after initial dose)
[14] = MAD 9.0 mg/kg, Day 1 (predose), baseline
[15] = MAD 9.0 mg/kg, Day 14 (8 h after last dose)
[16] = MAD 9.0 mg/kg, Day 14 (predose)
[17] = MAD 20.0 mg/kg, Day 1 (8 h after initial dose)
[18] = MAD 20.0 mg/kg, Day 1 (predose), baseline
[19] = MAD 20.0 mg/kg, Day 14 (8 h after last dose)
[20] = MAD 20.0 mg/kg, Day 14 (predose)

SMILES: C[C@@H]1C[C@H]2[C@@H]3CCC4=CC(=O)C=C[C@]4(C)C3=CC[C@]2(C)[C@@]1(O)C(=O)CO [vamorolone]
- adrenal suppressive activity relative to traditional glucocorticoids [1]: ~ 1%
- CTX1 [2, 5]: 0.22 ± 0.02 ng/mL
- CTX1 [2, 6]: 0.50 ± 0.11 ng/mL
- CTX1 [2, 7]: 0.22 ± 0.01 ng/mL
- CTX1 [2, 8]: 0.58 ± 0.12 ng/mL
- CTX1 ([2]; MAD 1.0 mg/kg, Day 15 recovery): 0.68 ± 0.16 ng/mL
- CTX1 ([2]; MAD 1.0 mg/kg, Day 17 recovery): 0.55 ± 0.09 ng/mL
- CTX1 [2, 9]: 0.18 ± 0.00 ng/mL
- CTX1 [2, 10]: 0.31 ± 0.05 ng/mL
- CTX1 [2, 11]: 0.18 ± 0.00 ng/mL
- CTX1 [2, 12]: 0.48 ± 0.13 ng/mL
- CTX1 ([2]; MAD 3.0 mg/kg, Day 15 recovery): 0.48 ± 0.10 ng/mL
- CTX1 ([2]; MAD 3.0 mg/kg, Day 17 recovery): 0.46 ± 0.12 ng/mL
- CTX1 [2, 13]: 0.19 ± 0.006 ng/mL
- CTX1 [2, 14]: 0.59 ± 0.11 ng/mL
- CTX1 [2, 15]: 0.23 ± 0.03 ng/mL
- CTX1 [2, 16]: 0.73 ± 0.14 ng/mL
- CTX1 ([2]; MAD 9.0 mg/kg, Day 15 recovery): 0.77 ± 0.13 ng/mL
- CTX1 ([2]; MAD 9.0 mg/kg, Day 17 recovery): 0.60 ± 0.10 ng/mL
- CTX1 [2, 17]: 0.22 ± 0.02 ng/mL
- CTX1 [2, 18]: 0.70 ± 0.14 ng/mL
- CTX1 [2, 19]: 0.29 ± 0.06 ng/mL
- CTX1 [2, 20]: 0.88 ± 0.12 ng/mL
- CTX1 ([2]; MAD 20.0 mg/kg, Day 15 recovery): 0.92 ± 0.14 ng/mL
- CTX1 ([2]; MAD 20.0 mg/kg, Day 17 recovery): 0.76 ± 0.10 ng/mL
- severe stunting of growth and osteopenia [3]: did not
- Osteocalcin [4, 5]: 27.4 ± 9.3 ng/mL
- Osteocalcin [4, 6]: 33.2 ± 11.5 ng/mL
- Osteocalcin [4, 7]: 21.0 ± 7.8 ng/mL
- Osteocalcin [4, 8]: 30.3 ± 9.7 ng/mL
- Osteocalcin ([4]; MAD 1.0 mg/kg, Day 15 recovery): 28.8 ± 9.3 ng/mL
- Osteocalcin ([4]; MAD 1.0 mg/kg, Day 17 recovery): 25.9 ± 8.0 ng/mL
- Osteocalcin [4, 9]: 13.6 ± 11.5 ng/mL
- Osteocalcin [4, 10]: 13.7 ± 11.6 ng/mL
- Osteocalcin [4, 11]: 13.0 ± 11.0 ng/mL
- Osteocalcin [4, 12]: 17.1 ± 13.3 ng/mL
- Osteocalcin ([4]; MAD 3.0 mg/kg, Day 15 recovery): 16.1 ± 12.5 ng/mL
- Osteocalcin ([4]; MAD 3.0 mg/kg, Day 17 recovery): 13.9 ± 9.5 ng/mL
- Osteocalcin [4, 13]: 20.4 ± 4.7 ng/mL
- Osteocalcin [4, 14]: 32.9 ± 8.6 ng/mL
- Osteocalcin [4, 15]: 18.7 ± 4.3 ng/mL
- Osteocalcin [4, 16]: 24.0 ± 6.4 ng/mL
- Osteocalcin ([4]; MAD 9.0 mg/kg, Day 15 recovery): 26.7 ± 5.2 ng/mL
- Osteocalcin ([4]; MAD 9.0 mg/kg, Day 17 recovery): 33.5 ± 7.2 ng/mL
- Osteocalcin [4, 17]: 20.2 ± 4.6 ng/mL
- Osteocalcin [4, 18]: 31.5 ± 6.7 ng/mL
- Osteocalcin [4, 19]: 17.0 ± 3.7 ng/mL
- Osteocalcin [4, 20]: 32.8 ± 7.6 ng/mL
